The subject of data set [1] is Pseudomonas aeruginosa MB 5919. Kind of data set: Minimum inhibitory concentrations of sentinel antibiotics (strain quality control). Format: cell-based. Conditions: OprD+, efflux+, parental strain.
Data set [2] relates to Pseudomonas aeruginosa MB 5890. Described as above. Format: cell-based. Particulars: OprD+, efflux−, parental strain.
The test system of data set [3] is MB 5919 Trans IMP1 plasmid (MB 9798). Format: cell-based, Pseudomonas aeruginosa. Particulars: OprD+, efflux+.
For data set [4], the system named is MB 5890 Trans IMP1 plasmid (MB 9799). Format: cell-based, Pseudomonas aeruginosa. Particulars: OprD+, efflux−.
Data set [5] has as its system MB 5919 Trans pFlp-Vim1 plasmid (MB 9861). The class given is cell-based, Pseudomonas aeruginosa. Conditions: OprD+, efflux+.
For data set [6], the system named is MB 5890 Trans pFlp-Vim1 (MB9862). Format: cell-based, Pseudomonas aeruginosa. Conditions: OprD+, efflux−.
Data set [7] has as its system MB 5919 Trans pFlp-Vim2 plasmid. Format: cell-based, Pseudomonas aeruginosa. Conditions: OprD+, efflux+.
Data set [8] relates to MB 5890 Trans pFlp-Vim2 plasmid. Format: cell-based, Pseudomonas aeruginosa. Conditions: OprD+, efflux−.
In data set [9] the target is IMP-1 (Serratia marcescens, UniProt P52699). Format: biochemical. Conditions: CCF2-FA substrate, 2 hours at 25° C. The procedure: (§1) Enzyme Activity: Determination of IC50
(§2) The Class B enzyme activities were measured in the presence of the test inhibitor in a fluorescence assay against a commercially available substrate consisting of a cephalosporin core linking 7-hydroxycoumarin to fluorescein (CCF2-FA). […] In a 384-well microplate, the test inhibitor was incubated with the metallo-β-lactamase enzyme and the substrate for 2 hours at 25° C. […] The IC50 value was determined from semi-logarithmic plots of enzyme inhibition versus inhibitor concentration, with a curve generated using a 4-parameter fit.

The target of data set [10] is NDM-1 (Klebsiella pneumoniae, UniProt C7C422). The class given is biochemical. Particulars: CCF2-FA substrate, 2 hours at 25° C. The procedure:
as §1, §2

The target of data set [11] is VIM-1 (Pseudomonas aeruginosa (strain ATCC 15692 / DSM 22644 / CIP 104116 / JCM 14847 / LMG 12228 / 1C / PRS 101 / PAO1), UniProt A0A0F7KYQ8). Format: biochemical. Conditions: CCF2-FA substrate, 2 hours at 25° C. The procedure:
as §1, §2

Data set [12] relates to Escherichia coli expressing NDM-1 (CLB30005, CLB30016). The class given is cell-based. Conditions: with imipenem 1 μg/ml; 95% inhibition of bacterial growth. In outline: (§3)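 Clinical strains were grown overnight at 35 °C on blood agar, adjusted to set OD600 in saline and diluted 1:100 into 1.1× CAMHB. Inhibitor was tested with and without imipenem at 1 μg/ml. After 22–24 h at 35 °C, absorbance was read to give synergistic concentration.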

Data set [13] deals with Pseudomonas aeruginosa PAO1 MB9798 (efflux+, IMP-1). Particulars: for Efflux ratio: ratio MITC95 PA 9798/MITC95 PA 9799; for P. aeruginosa expressing IMP-1, efflux + (MB9798) MITC95: restores susceptibility to imipenem at 2 μg/mL in the presence of a class A. In outline:
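Isogenic PAO1 pair (efflux+ MB9798, efflux− MB9799, both IMP-1) tested by microbroth MIC with fixed imipenem and/or ceftazidime, usually at CLSI breakpoint, plus fixed class A/C inhibitor against AmpC. MBL inhibitor titrated; concentration restoring susceptibility recorded and fold difference between strains taken as efflux extent.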

Data set [14] concerns Pseudomonas aeruginosa PAO1 MB9799 (efflux-, IMP-1). Format: cell-based. Conditions: C, D serine β-lactamase inhibitor closely related to relebactam; for P. aeruginosa expressing IMP-1, efflux − (MB9799) MITC95: restores susceptibility to imipenem at 2 μg/mL in the presence of a class A, efflux − strain MB9799. The source says: The strain background was Pseudomonas aeruginosa PAO1.
The strain set was then used as a pair to determine the effect of metallo-β-lactamase inhibitors of Formula I on the MIC of imipenem and/or ceftazidime. A fixed concentration of antibiotic was included in standard microbroth MIC tests, usually at the CLSI (Clinical and Laboratory Standards Institute) breakpoint concentration. A fixed amount of a class A/C beta-lactamase inhibitor was also included to inhibit the resident Pseudomonas AmpC enzyme. A serial titration of the metallo-β-lactamase inhibitor was included and the concentration of metallo-β-lactamase inhibitor which restores susceptibility of the strain to the included antibiotic was recorded. That concentration of metallo-β-lactamase inhibitor was then compared between the two strains to determine the fold difference between the efflux + (MB9798) and efflux − (MB9799) strains. This was taken as an indication of the extent to which the MBLi is subject to efflux.

The subject of data set [15] is Klebsiella pneumoniae expressing VIM-1 (IHMA599644). The class given is cell-based. Particulars: with imipenem 1 μg/ml; 95% inhibition of bacterial growth. In outline:
as §3

Data set [16] relates to Serratia marcescens expressing IMP-1 (CL5741). The class given is cell-based. Conditions: with imipenem 1 μg/ml; 95% inhibition of bacterial growth. In outline:
as §3

Setting [17] is: C, D serine β-lactamase inhibitor closely related to relebactam, efflux + strain MB9798.

Eight molecules from patent US10544130B2, “Metallo-beta-lactamase inhibitors” (priority 2015, dated 2020) can be followed below.

As a reminder, the MIC is the lowest concentration found to suppress growth. One may read the pIC50 as −log10 of the IC50, conventionally taken in molar units. The low end stands for a large IC50, the high end for a small IC50.

pIC50: −log10 of the molar value. In brackets after ≈: the same amount, converted by molar mass. Where two headings read alike, the source gives them in different places.

Chain of NDM-1 (C7C422 whole entry, looked up, species assumed): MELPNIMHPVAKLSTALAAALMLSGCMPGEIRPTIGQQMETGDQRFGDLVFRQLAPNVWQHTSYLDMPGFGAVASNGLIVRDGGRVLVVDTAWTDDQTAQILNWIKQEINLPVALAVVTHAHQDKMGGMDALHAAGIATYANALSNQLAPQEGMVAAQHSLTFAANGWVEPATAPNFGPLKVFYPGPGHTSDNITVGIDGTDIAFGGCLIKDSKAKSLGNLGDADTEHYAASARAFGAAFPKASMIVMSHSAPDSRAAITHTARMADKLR
Chain of IMP-1 (P52699 whole entry, looked up, species assumed): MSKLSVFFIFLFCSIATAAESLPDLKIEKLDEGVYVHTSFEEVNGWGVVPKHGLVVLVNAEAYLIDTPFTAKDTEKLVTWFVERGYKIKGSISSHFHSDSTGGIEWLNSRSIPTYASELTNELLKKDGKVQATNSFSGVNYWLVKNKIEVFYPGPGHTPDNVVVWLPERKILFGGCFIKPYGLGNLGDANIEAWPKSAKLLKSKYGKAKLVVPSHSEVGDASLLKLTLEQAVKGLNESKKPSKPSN

For the molecule `C[C@@H](O)[C@H]1C(=O)N2C(C(=O)O)=C(SCCN=CN)C[C@H]12` [Imipenem, imipenem], the MIC is 4 µg/mL (≈ 13.4 µM) in data set [1]; 2 µg/mL (≈ 6.68 µM) in data set [2]; 64 µg/mL (≈ 214 µM) in data set [3]; 32 µg/mL (≈ 107 µM) in data set [4]; above 64 µg/mL in data set [5]; 64 µg/mL (≈ 214 µM) in data set [6]. Besides, the MIC in data set [7] was above 64 µg/mL; in [8], 32 µg/mL (≈ 107 µM).
As for `Nc1nc2c(-c3ccc(S(=O)(=O)N4CCN(CCO)CC4)c(S(N)(=O)=O)c3-c3nnn[nH]3)cccc2s1.O=C(O)C(F)(F)F` [Example 92, 4-((4-(2-aminobenzo[d]thiazol-4-yl)-2-sulfamoyl-3-(1H-tetrazol-5-yl)phenyl)sulfonyl)-1-(2-hydroxyethyl) piperazin-1-ium 2,2,2-trifluoroacetate], the results for the pIC50 in data set [9] (fluorescence assay), in data set [10] (fluorescence assay) and in data set [11] (fluorescence assay) were 8.93, 9.22 and 8.85, respectively. Besides, the “Escherichia coli expressing NDM-1 (CLB30016) MITC95” value in [12] is 12.5 µM. The Efflux ratio in data set [13] (imipenem at 2 μg/mL) is on record as 4.00. The “P. aeruginosa expressing IMP-1, efflux + (MB9798) MITC95” value in [13] (setting [17]) is 25 µM. Moreover, the “P. aeruginosa expressing IMP-1, efflux − (MB9799) MITC95” value in data set [14] is 6.25 µM.
Turning to “(R)-4-(1-(2-aminoethyl)-1H-benzo[d][1,2,3]triazol-4-yl)-N1-(pyrrolidin-3-yl)-3-(2H-tetrazol-5-yl)benzene-1,2-disulfonamide yl)benzene-1,2-disulfonamide [Example 289]”, the pIC50 in data set [9] is 8.91; in data set [10], 9.60; in [11], 9.98. The “Escherichia coli (NDM-1) MITC95” value in data set [12] turned out to be 0.7813 µM. Moreover, the “Klebsiella pneumoniae (VIM-1) MITC95” value in data set [15] was 1.563 µM. Further, the “Serratia marcescens (IMP-1) MITC95” value in data set [16] turned out to be 1.563 µM. In addition, the Efflux ratio in [13] (imipenem at 2 μg/mL) is 2.00. Also, the “P. aeruginosa expressing IMP-1, efflux + (MB9798) MITC95” value in [13] (setting [17]) is 1.563 µM. For the same molecule, the “P. aeruginosa expressing IMP-1, efflux − (MB9799) MITC95” value in data set [14] came out at 0.7813 µM.
Take `C[C@@H](O)[C@H]1C(=O)N2C(C(=O)O)=C(S[C@@H]3CN[C@H](C(=O)N(C)C)C3)[C@H](C)[C@H]12` [Meropenem, meropenem]: the MIC in [1] is 2 µg/mL (≈ 5.22 µM); in [2], 0.5 µg/mL (≈ 1.3 µM); in data set [3] it was above 64 µg/mL; in data set [4], 64 µg/mL (≈ 167 µM); in data set [5], above 64 µg/mL; in data set [6], 64 µg/mL (≈ 167 µM). For the same molecule, the MIC was above 64 µg/mL in [7] and 32 µg/mL (≈ 83.4 µM) in [8].
For the molecule `CCN1CCN(C(=O)N[C@@H](C(=O)N[C@@H]2C(=O)N3[C@@H]2SC(C)(C)[C@@H]3C(=O)O)c2ccccc2)C(=O)C1=O` [Pipercillin, piperacillin], the MIC in data set [1] was determined as 2 µg/mL (≈ 3.86 µM); in data set [2], 1 µg/mL (≈ 1.93 µM); in data set [3], 4 µg/mL (≈ 7.73 µM); in data set [4], 4 µg/mL (≈ 7.73 µM).
For `NC[C@H](O)CNS(=O)(=O)c1ccc(-c2ccnc(N)c2)c(-c2nn[nH]n2)c1S(N)(=O)=O` [Example 417, (S)-N^1-(3-amino-2-hydroxypropyl)-4-(2-aminopyridin-4-yl)-3-(2H-tetrazol-5-yl)benzene-1,2-disulfonamide], the pIC50 in data set [9] is 8.89; in data set [10], 9.41. Also, in data set [13] (imipenem at 2 μg/mL, in the presence of a class A, C, D serine β-lactamase inhibitor closely related to relebactam, efflux + strain MB9798), the “Concentration of metallo-β-lactamase inhibitor which restores susceptibility of efflux + (MB9798) strain to imipenem” value worked out at 1.563. Besides, the “Concentration of metallo-β-lactamase inhibitor which restores susceptibility of efflux − (MB9799) strain to imipenem” value in data set [14] (imipenem at 2 μg/mL, in the presence of a class A) stood at 0.7813.
Take `C[N+]1(CCN)CC[C@@H](NS(=O)(=O)c2ccc(-c3cccc4[nH]c(N)nc34)c(-c3nn[nH]n3)c2S(N)(=O)=O)C1` (stereo partly drawn) [Example 248, (3R)-3-{[4-(2-amino-1H-1,3-benzodiazol-4-yl)-2-sulfamoyl-3-(2H-1,2,3,4-tetrazol-5-yl)benzene]sulfonamido}-1-(2-aminoethyl)-1-methylpyrrolidin-1-ium; methaneperoxoate]: the “Klebsiella pneumoniae (VIM-1) MITC95” value in data set [15] is 0.7813 µM. Besides, the “P. aeruginosa expressing IMP-1, efflux + (MB9798) MITC95” value in data set [13] (setting [17]) stood at 0.7813 µM. Besides, the “P. aeruginosa expressing IMP-1, efflux − (MB9799) MITC95” value in data set [14] was 0.7813 µM.
Turning to `CC(C)(O/N=C(\C(=O)N[C@@H]1C(=O)N2C(C(=O)[O-])=C(C[n+]3ccccc3)CS[C@H]12)c1csc(N)n1)C(=O)O` [CAZ, ceftazidime], the MIC amounted to 1 µg/mL (≈ 1.83 µM) in data set [1], 0.5 µg/mL (≈ 0.915 µM) in data set [2] and 64 µg/mL (≈ 117 µM) in data set [8].
